According to patent US20090062395A1, “RENIN INHIBITORS FOR THE TREATMENT OF HYPERTENSION” (priority 2006, published 2009):

Experiments:
[1] = system: patients; experiment: Long-term study, placebo-controlled randomized withdrawal period from month 11 (visit 10); assay type: in vivo, human; details: for Mean change (SD) from Month 11 (Visit 10) in msDBP / Mean change (SD) from Month 11 (Visit 10) in msSBP: continued aliskiren monotherapy 150 or 300 mg
Method: Persistence of effect was examined after a long-term study in which patients were treated for approximately 1 year. Patients were randomly assigned to aliskiren at either 150 mg or 300 mg a day. Aliskiren was increased to 300 mg in those patients who had not responded to 150 mg. Starting at the end of treatment month 2 and 3, investigators adjusted individual therapy in order to achieve a goal BP of <140/90 mm Hg. Subsequent upward dose titration required that BP exceed 140/90 for two consecutive visits. No downward titration of aliskiren was permitted.
At month 11 (visit 10), patients who had been maintained on aliskiren monotherapy entered a placebo-controlled randomized withdrawal study to confirm continued efficacy. Eligible patients were stratified based on dose and randomized in a 1:1 ratio to either continue their current treatment of aliskiren monotherapy (aliskiren 150 mg or aliskiren 300 mg) or be switched to placebo in a double-blind fashion.
The potential for a rebound effect on BP with abrupt treatment withdrawal was evaluated.
Rebound was defined as a rise of >5 mm Hg for diastolic and >10 mm for systolic was used and the results are presented separately.

[2] = system: patients; experiment: Abrupt withdrawal of aliskiren after eight weeks of treatment, compared with placebo (FIG. 3); assay type: in vivo, human
Method: In another study, the potential for rebound hypertension following abrupt withdrawal of aliskiren treatment was evaluated in those patients who completed eight weeks of treatment compared to patients that were given a placebo only. The tested doses were 150, 300 and 600 mg of aliskiren.

[3] = End point: Month 11 + 28 days or last visit carried forward
[4] = Visit 11, Month 11 + 7 Days, randomized withdrawal ITT population

## COCCCOc1cc(C[C@@H](C[C@H](N)[C@@H](O)C[C@H](C(=O)NCC(C)(C)C(N)=O)C(C)C)C(C)C)ccc1OC [aliskiren, 2(S),4(S),5(S),7(S)—N-(3-amino-2,2-dimethyl-3-oxopropyl)-2,7-di(1-methylethyl)-4-hydroxy-5-amino-8-[4-methoxy-3-(3-methoxy-propoxy)phenyl]-octanamide]
[1]; [3]
  Mean change (SD) from Month 11 (Visit 10) in msDBP: 1.2 (6.9) mm Hg
  Mean change (SD) from Month 11 (Visit 10) in msSBP: 1.7 (10.1) mm Hg
[1]; [4]
  Mean change (SD) from Month 11 (Visit 10) in msDBP: 0.3 (6.8) mm Hg
  Mean change (SD) from Month 11 (Visit 10) in msSBP: 1.3 (10.3) mm Hg
[1]; Visit 12, Month 11 + 14 Days
  Mean change (SD) from Month 11 (Visit 10) in msDBP: 0.3 (6.8) mm Hg
  Mean change (SD) from Month 11 (Visit 10) in msSBP: 0.3 (10.4) mm Hg
[1]; Visit 13, Month 11 + 21 Days
  Mean change (SD) from Month 11 (Visit 10) in msDBP: 0.4 (6.7) mm Hg
  Mean change (SD) from Month 11 (Visit 10) in msSBP: 0.5 (10.6) mm Hg
[1]; Visit 14, Month 11 + 28 Days
  Mean change (SD) from Month 11 (Visit 10) in msDBP: 1.1 (6.8) mm Hg
  Mean change (SD) from Month 11 (Visit 10) in msSBP: 1.8 (10.1) mm Hg
[1]; patients switched to placebo at month 11 after aliskiren 150 or 300 mg monotherapy
  Persistence of blood pressure lowering effect after withdrawal: a persistence of a blood pressure lowering effect was observed for several weeks after withdrawal
[1]; rebound defined as rise of >5 mm Hg diastolic and >10 mm systolic
  Rebound effect on BP with abrupt treatment withdrawal: no sign of rebound
[2]; 4 days and 2 weeks after drug withdrawal, aliskiren 150 mg, 300 mg and 600 mg groups versus placebo group
  Patients with msDBP and msSBP values remaining below baseline: more patients in the aliskiren 150 mg, 300 mg, and 600 mg groups had msDBP and msSBP values that remained below baseline compared with the placebo group
[2]; after eight weeks of aliskiren 150, 300 or 600 mg, study period of two weeks
  Persistence of the antihypertensive effect following withdrawal: a good persistence of the antihypertensive effect
[2]; after eight weeks of aliskiren 150, 300 or 600 mg, two weeks after withdrawal
  Rebound hypertension following abrupt withdrawal: no signs of rebound hypertension
[2]; aliskiren 150, 300 and 600 mg for eight weeks, throughout the drug withdrawal period
  BP after withdrawal of study drug versus placebo group: values still remained lower than those in the placebo group
